Measured values: doi:10.1101/2023.07.20.549922v1 (biorxiv, 2023)

Legend:
AmGSTD1 [1] = molecular target: T1, AmGSTD1 (Apis mellifera, UniProt A0A8U0Y9D4); assay: ANS displacement fluorescence; format: binding
T1 sequence (A0A8U0Y9D4 1-240): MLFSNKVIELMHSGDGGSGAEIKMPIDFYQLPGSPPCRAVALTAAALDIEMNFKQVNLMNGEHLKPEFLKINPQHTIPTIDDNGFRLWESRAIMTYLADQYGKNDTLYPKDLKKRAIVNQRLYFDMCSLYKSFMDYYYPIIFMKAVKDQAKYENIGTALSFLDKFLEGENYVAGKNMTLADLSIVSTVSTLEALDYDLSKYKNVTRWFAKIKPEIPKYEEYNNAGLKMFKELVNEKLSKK

AmGSTD1 [2] = molecular target: T1, AmGSTD1; assay: ANS displacement fluorescence, Ki from IC50; format: binding
AmGSTD1 [3] = molecular target: T1, AmGSTD1; assay: fluorescence saturation binding
AmGSTD1 [4] = molecular target: T1, AmGSTD1; assay: absorbance initial rates, Michaelis-Menten; settings: 4 mM GSH; 100 mM KPi pH 6.5; 30 °C
purified protein [5] = substrate: CC(=O)Oc1ccc([N+](=O)[O-])cc1; assay: purified protein; settings: 4 mM GSH, 100 mM KPi pH 6.5, 30 °C
purified protein [6] = substrate: S=C=NCCc1ccccc1; assay: purified protein; settings: 4 mM GSH, 100 mM KPi pH 6.5, 30 °C
purified protein [7] = substrate: CCCCCC(O)/C=C/C=O; assay: purified protein; settings: 0.5 mM GSH, 100 mM KPi pH 6.5, 30 °C

`O=C(O)COc1ccc(Cl)cc1Cl` [2,4-D] showed an IC50 (AmGSTD1 [1]) of 1010 ± 56 µM and a Ki (AmGSTD1 [2]) of 41.4 µM.

Molecule `O=Cc1cccc(Oc2ccccc2)c1` [3-phenoxybenzaldehyde] has a Ki (AmGSTD1 [2]) of 302 µM.

Molecule `O=S(=O)(O)c1cccc2cccc(Nc3ccccc3)c12` [ANS] has a Kd (AmGSTD1 [3]) of 2.09 ± 0.102 µM.

`O=[N+]([O-])c1ccc(Cl)c([N+](=O)[O-])c1` [CDNB] was tested, and the Km (AmGSTD1 [4]) was 525 ± 70 µM, the IC50 (AmGSTD1 [1]) was 1220 ± 55 µM and the Ki (AmGSTD1 [2]) was 49.6 µM.

With `CCCN=C=S` [PITC] the Km (AmGSTD1 [4]) was 1100 ± 140 µM.

In the case of `Oc1nc(Cl)c(Cl)cc1Cl` [TCP], the IC50 (AmGSTD1 [1]) is reported as 613 ± 27 µM and the Ki (AmGSTD1 [2]) is reported as 25 µM.

Work on `C=C(CC)C(=O)c1ccc(OCC(=O)O)c(Cl)c1Cl` [ethacrynic acid] yielded an IC50 (AmGSTD1 [1]) of 1020 ± 40 µM and a Ki (AmGSTD1 [2]) of 41.5 µM.

In the case of `O=[N+]([O-])NC1=NCCN1Cc1ccc(Cl)nc1` [imidacloprid], the Ki (AmGSTD1 [2]) is reported as 130 µM.

With `CCCCC(C#N)(Cn1cncn1)c1ccc(Cl)cc1` (stereo not shown) [myclobutanil] the Ki (AmGSTD1 [2]) was 148 µM.

`O=C(O)COc1nc(Cl)c(Cl)cc1Cl` [triclopyr] showed an IC50 (AmGSTD1 [1]) of 1860 ± 190 µM and a Ki (AmGSTD1 [2]) of 76.1 µM.

B1: AmGSTD1 (Apis mellifera) (protein)
chain: MLFSNKVIELMHSGDGGSGAEIKMPIDFYQLPGSPPCRAVALTAAALDIEMNFKQVNLMNGEHLKPEFLKINPQHTIPTIDDNGFRLWESRAIMTYLADQYGKNDTLYPKDLKKRAIVNQRLYFDMCSLYKSFMDYYYPIIFMKAVKDQAKYENIGTALSFLDKFLEGENYVAGKNMTLADLSIVSTVSTLEALDYDLSKYKNVTRWFAKIKPEIPKYEEYNNAGLKMFKELVNEKLSKK
B1 showed a Km (purified protein [5]) of 1160 ± 90 µM, a kcat (purified protein [5]) of 6.7 ± 0.233 s⁻¹ and a Km (purified protein [6]) of 819 ± 100 µM. It also gave a kcat (purified protein [6]) of 3.93 ± 0.2 s⁻¹, a Km (purified protein [7]) of 106 ± 34 µM and a kcat (purified protein [7]) of 0.345 ± 0.0433 s⁻¹.
